Counter-ions that a name gives are not always drawn.

The text below walks through data of PMC7539012, “Hyperphosphorylated tau aggregation and cytotoxicity modulators screen identified prescription drugs linked to Alzheimer's disease and cognitive functions” (Scientific Reports, 2020).

One experiment deals with T1, 1N4R p-tau.
T1 construct: made in house; host or cells: E. coli (PIMAX system)
As to the kind of experiment: p-tau aggregation modulator screen of 1280-compound library (ThS fluorescence net change over 16 h).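 On ThS net change: 30 µM compound with 6 µM p-tau over 16 h.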 The experiment is classed as biochemical. More on the design: key to PTAI>2SD: *: PTAI>2SD.
Conditions: not given
Compound `CC(C)c1c(CN(C)C(C)Cc2ccccc2)n(C)n(-c2ccccc2)c1=O` (stereo not drawn) [Famprofazone] displayed a ThS net change of 477.
The same measure, in the same setting: the result for `C[C@@H]1C[C@H]2[C@@H]3C[C@H](F)C4=CC(=O)C=C[C@]4(C)[C@@]3(F)[C@@H](O)C[C@]2(C)[C@@]1(O)C(=O)COC(=O)C(C)(C)C` [Flumethasone pivalate] reads 476; that for `COCCCC/C(=N\OCCN)c1ccc(C(F)(F)F)cc1` [Fluvoxamine maleate], 420.
The same measure, in the same setting: the result for `C[C@]12CCC(=O)C(O)=C1CC[C@@H]1[C@@H]2CC[C@]2(C)C(=O)CC[C@@H]12` [Formestane] reads 413; that for `C/C(=C(/CCO)SSCC1CCCO1)N(C=O)Cc1cnc(C)nc1N.Cl` (stereo not drawn) [Fursultiamine Hydrochloride], 360.

The same experiment, now with this note: 1280-compound library screen; ThS fluorescence net change over 16 h.
As to `CC1CC(OC(=O)C(O)c2ccccc2)CC(C)(C)N1C` (stereo not drawn) [Eucatropine hydrochloride], the ThS net change is reported as 387.
The same measure, in the same setting: the same measure for `NC(N)=Nc1nc(CSCCC(N)=NS(N)(=O)=O)cs1` [Famotidine]: 390; for `O=C(O)Cc1ccc(-c2ccccc2)cc1` [Felbinac]: 405; for `CCOC(=O)C1=C(C)NC(C)=C(C(=O)OC)C1c1cccc(Cl)c1Cl` (stereo not drawn) [Felodipine]: 405.
Same read-out and setting: the same measure for `O=C(O)Cc1sc(-c2ccccc2)nc1-c1ccc(Cl)cc1` [Fentiazac]: 382.
On to `O=c1[nH]c(=O)n([C@H]2C[C@H](O)[C@@H](CO)O2)cc1F` [Floxuridine], for which the ThS net change was found to be 388.
Same read-out and setting: the result for `CC(=O)OCC(=O)[C@@]1(O)CC[C@H]2[C@@H]3CCC4=CC(=O)CC[C@]4(C)[C@@]3(F)[C@@H](O)C[C@@]21C` [Fludrocortisone acetate] reads 380; that for `CC1(C)O[C@@H]2C[C@H]3[C@@H]4C[C@H](F)C5=CC(=O)C=C[C@]5(C)[C@H]4[C@@H](O)C[C@]3(C)[C@]2(C(=O)CO)O1` [Flunisolide], 378; that for `CC(=O)OCC(=O)[C@@]12OC(C)(C)O[C@@H]1C[C@H]1[C@@H]3C[C@H](F)C4=CC(=O)C=C[C@]4(C)[C@@]3(F)[C@@H](O)C[C@@]12C` [Fluocinonide], 387.
The same measure, in the same setting: the same measure for `CC(=O)[C@@]1(O)CC[C@H]2[C@@H]3C[C@H](C)C4=CC(=O)C=C[C@]4(C)[C@@]3(F)[C@@H](O)C[C@@]21C` [Fluorometholone]: 383; for `Nc1nc(=O)c2nc(CNc3ccc(C(=O)N[C@@H](CCC(=O)O)C(=O)O)cc3)cnc2[nH]1` [Folic acid]: 398; for `O=C(O)c1ccccc1OP(=O)(O)O` [Fosfosal]: 380.
The same measure, in the same setting: the result for `Cl.O=C1OC(CN2CCOCC2)CN1/N=C/c1ccc([N+](=O)[O-])o1` (stereo not drawn) [Furaltadone hydrochloride] reads 385.

The experiment is the same for the next values; noted with them: 1280-compound library screen; […].
In turn, `CC(Cc1ccc(O)cc1)NCC(O)c1cc(O)cc(O)c1` (stereo not drawn) [Fenoterol hydrobromide] had a ThS net change of 405.

Still in this experiment, the particulars now being: flag: p-tau aggregation inhibitor, ThS net change more than 2 SD from mean.
With `COC(=O)Nc1nc2ccc(Sc3ccccc3)cc2[nH]1` [Fenbendazole], the “PTAI>2SD” value was “*”.

The same experiment, now with this note: library screen, ThS fluorescence net change over 16 h with p-tau.
With `COC(=O)Nc1nc2ccc(Sc3ccccc3)cc2[nH]1` [Fenbendazole], the ThS net change is reported as 148.
The same measure, in the same setting: the same measure for `Oc1ccc(C2CNCCc3c2cc(O)c(O)c3Cl)cc1` (stereo not drawn) [Fenoldopam]: 310.
Same read-out and setting: the same measure for `CC1CCc2cc(F)cc3c(=O)c(C(=O)O)cn1c23` (stereo not drawn) [Flumequine]: 303.
Still for that read-out and setting: the same measure for `O=C1NCN(c2ccccc2)C12CCN(CCCC(c1ccc(F)cc1)c1ccc(F)cc1)CC2` [Fluspirilen]: 258.

The experiment is the same for the next values; noted with them: p-tau aggregation modulator screen of 1280-compound library; ThS fluorescence net change.
Compound `Cc1ccc(-c2ncc(Cl)cc2-c2ccc(S(C)(=O)=O)cc2)cn1` [Etoricoxib] had a ThS net change of 376.
Still for that read-out and setting: the result for `C=C1C[C@@H]2[C@H](CC[C@]3(C)C(=O)CC[C@@H]23)[C@@]2(C)C=CC(=O)C=C12` [Exemestane] reads 373; that for `O=C(O)CCC(=O)c1ccc(-c2ccccc2)cc1` [Fenbufen], 368.
With `CC(NCCC(c1ccccc1)c1ccccc1)c1ccccc1` (stereo not drawn) [Fendiline hydrochloride], the ThS net change was 335.
The same measure, in the same setting: the same measure for `CCCCC(O)c1ccccc1` (stereo not drawn) [Fenipentol]: 375; for `O=C1NCC2(CCN(CCc3ccccc3)CC2)O1` [Fenspiride hydrochloride]: 362.
In the case of `CC(C)(C)NC(=O)[C@H]1CC[C@H]2[C@@H]3CC[C@H]4NC(=O)C=C[C@]4(C)[C@H]3CC[C@]12C` [Finasteride], the ThS net change was 346.
Same read-out and setting: the same measure for `O=C(COc1ccc(Cl)cc1)N1CCN(Cc2ccc3c(c2)OCO3)CC1` [Fipexide hydrochloride]: 359; for `Cc1c(-c2ccccc2)oc2c(C(=O)OCCN3CCCCC3)cccc2c1=O` [Flavoxate hydrochloride]: 359.
On the same count and under the same terms, the result for `O=C(NCC1CCCCN1)c1cc(OCC(F)(F)F)ccc1OCC(F)(F)F` (stereo not drawn) [Flecainide acetate] reads 354; that for `COC(=O)Nc1nc2cc(C(=O)c3ccc(F)cc3)ccc2[nH]1` [Flubendazol], 332; that for `OC(Cn1cncn1)(Cn1cncn1)c1ccc(F)cc1F` [Fluconazole], 374.
The same measure, in the same setting: the same measure for `Nc1[nH]c(=O)ncc1F` [Flucytosine]: 334; for `Fc1ccc(C(c2ccc(F)cc2)N2CCN(C/C=C/c3ccccc3)CC2)cc1` [Flunarizine dihydrochloride]: 370; for `Cc1c(Nc2ncccc2C(=O)O)cccc1C(F)(F)F` [Flunixin meglumine]: 354.
As for `CNCCC(Oc1ccc(C(F)(F)F)cc1)c1ccccc1` (stereo not drawn) [Fluoxetine hydrochloride], the ThS net change came to 370.
The same measure, in the same setting: the same measure for `OCCN1CCN(CCCN2c3ccccc3Sc3ccc(C(F)(F)F)cc32)CC1` [Fluphenazine dihydrochloride]: 370; for `CC1(C)O[C@@H]2C[C@H]3[C@@H]4C[C@H](F)C5=CC(=O)CC[C@]5(C)[C@H]4[C@@H](O)C[C@]3(C)[C@]2(C(=O)CO)O1` [Flurandrenolide]: 377.
With `CC(C(=O)O)c1ccc(-c2ccccc2)c(F)c1` (stereo not drawn) [Flurbiprofen], the ThS net change is recorded as 377.
Regarding `CC(C)C(=O)Nc1ccc([N+](=O)[O-])c(C(F)(F)F)c1` [Flutamide], the ThS net change came out at 331.
Still for that read-out and setting: the same measure for `Nc1nc(=O)c2c([nH]1)NCC(CNc1ccc(C(=O)N[C@@H](CCC(=O)[O-])C(=O)[O-])cc1)N2C=O.[Ca+2]` (stereo partly drawn) [Folinic acid calcium salt]: 359; for `Cc1cn[nH]c1` [Fomepizole]: 344.
The same measure, in the same setting: the result for `NS(=O)(=O)c1cc(C(=O)O)c(NCc2ccco2)cc1Cl` [Furosemide] reads 360.

The same experiment, now with this note: p-tau aggregation modulator screen of 1280-compound library; […].
Consider `CC(C(=O)[O-])c1cccc(Oc2ccccc2)c1.CC(C(=O)[O-])c1cccc(Oc2ccccc2)c1.O.O.[Ca+2]` (stereo not drawn) [Fenoprofen calcium salt dihydrate], for which the ThS net change turned out to be 366.

Still in this experiment, the particulars now being: p-tau aggregation modulator screen of the compound library, ThS fluorescence net change.
`COc1cc([C@@H]2c3cc4c(cc3[C@@H](O[C@@H]3O[C@@H]5CO[C@@H](C)O[C@H]5[C@H](O)[C@H]3O)[C@H]3COC(=O)[C@H]23)OCO4)cc(OC)c1O` [Etoposide] displayed a ThS net change of 413.
`CCOC(=O)/C=C(C)/C=C/C=C(C)/C=C/c1c(C)cc(OC)c(C)c1C` [Etretinate] registered a ThS net change of 420.
As for `O=C1[C@H](CC[C@H](O)c2ccc(F)cc2)[C@@H](c2ccc(O)cc2)N1c1ccc(F)cc1` [Ezetimibe], the ThS net change is 466.
Same read-out and setting: the result for `CC(=O)OCC(CCn1cnc2cnc(N)nc21)COC(C)=O` [Famciclovir] reads 459.
`NC(=O)OCC(COC(N)=O)c1ccccc1` [Felbamate] gave a ThS net change of 439.
On the same count and under the same terms, the result for `CC(C)OC(=O)C(C)(C)Oc1ccc(C(=O)c2ccc(Cl)cc2)cc1` [Fenofibrate] reads 531; that for `CC(C)(C(=O)O)c1ccc(C(O)CCCN2CCC(C(O)(c3ccccc3)c3ccccc3)CC2)cc1` (stereo not drawn) [Fexofenadine HCl], 435.
The same measure, in the same setting: the same measure for `CN1CCN(c2c(F)cc3c(=O)c(C(=O)O)cn(CCF)c3c2F)CC1` [Fleroxacin]: 424.
Take `CS(=O)(=O)c1ccc([C@@H](O)[C@@H](CF)NC(=O)C(Cl)Cl)cc1` [Florfenicol]: the ThS net change is listed as 433.
In turn, `Cc1onc(-c2c(F)cccc2Cl)c1C(=O)N[C@@H]1C(=O)N2[C@@H]1SC(C)(C)[C@@H]2C(=O)O` [Flucloxacillin sodium] gave a ThS net change of 443.
As to `Nc1nc(F)nc2c1ncn2[C@@H]1O[C@H](CO)[C@@H](O)[C@@H]1O` [Fludarabine], the ThS net change was 428.
Still for that read-out and setting: the same measure for `O=C(O)c1ccccc1Nc1cccc(C(F)(F)F)c1` [Flufenamic acid]: 416; for `CC1(C)O[C@@H]2C[C@H]3[C@@H]4C[C@H](F)C5=CC(=O)C=C[C@]5(C)[C@@]4(F)[C@@H](O)C[C@]3(C)[C@]2(C(=O)CO)O1` [Fluocinolone acetonide]: 460; for `CCC(=O)O[C@]1(C(=O)SCF)[C@H](C)C[C@H]2[C@@H]3C[C@H](F)C4=CC(=O)C=C[C@]4(C)[C@@]3(F)[C@@H](O)C[C@@]21C` [Fluticasone propionate]: 503.
The same measure, in the same setting: the result for `CC(C)n1c(/C=C/C(O)CC(O)CC(=O)O)c(-c2ccc(F)cc2)c2ccccc21` (stereo not drawn) [Fluvastatin sodium salt] reads 473.
The same measure, in the same setting: the result for `CCC(=O)O[C@@H](O[P@](=O)(CCCCc1ccccc1)CC(=O)N1C[C@H](C2CCCCC2)C[C@H]1C(=O)O)C(C)C` [Fosinopril] reads 587.
Compound `C[C@]12CC[C@@H]3c4ccc(O)cc4C[C@@H](CCCCCCCCC[S+]([O-])CCCC(F)(F)C(F)(F)F)[C@H]3[C@@H]1CC[C@@H]2O` (stereo partly drawn) [Fulvestrant] registered a ThS net change of 442.
Same read-out and setting: the same measure for `O=C1OCCN1/N=C/c1ccc([N+](=O)[O-])o1` [Furazolidone]: 415.
